# Laboratory results: article PMC9250534, “Synthesis and direct assay of large macrocycle diversities by combinatorial late-stage modification at picomole scale” (Nature Communications, 2022)
# Numbered stars: 1 amine (or outer) side, 2 acyl side, 3 side chain; on linkers, the order of the positions; unused ones are H or OH. Bridge positions count the residues as written; N and C are the ends. Square brackets hold non-standard residues; d marks the D form. Side chains are listed from the residue outwards. Peptide text beside a SMILES is read from it. * marks the point of attachment. Shikimoyl = O=C(C1=C[C@@H](O)[C@@H](O)[C@H](O)C1)*; Cyclopropanecarbonyl(1-CN) = N#CC1(C(=O)*)CC1; Pyrazinoyl(5-oxo-4H) = O=C(c1c[nH]c(=O)cn1)*; Isoxazole3carbonyl(5-Me) = Cc1cc(C(=O)*)no1; 1,2,3Thiadiazole5CO(4-Me) = Cc1nnsc1C(=O)*; Benzoyl(3-CF3) = O=C(c1cccc(C(F)(F)F)c1)*; Tetrahydropyran4carbonyl = O=C(C1CCOCC1)*; Isoorotoyl = O=C(c1c[nH]c(=O)[nH]c1=O)*; Benzoyl(3,5-F2) = O=C(c1cc(F)cc(F)c1)*; Nicotinoyl(6-OMe) = COc1ccc(C(=O)*)cn1; Indane2carbonyl = O=C(C1Cc2ccccc2C1)*; Acetyl(4-pyridyl) = O=C(Cc1ccncc1)*; Benzoyl(4-OMe) = COc1ccc(C(=O)*)cc1; 2Thenoyl(5-Cl) = O=C(c1ccc(Cl)s1)*; Benzoyl(4-Cl) = O=C(c1ccc(Cl)cc1)*; Cyclohexylacetyl = O=C(CC1CCCCC1)*; Pyrazinecarbonyl = O=C(c1cnccn1)*; Phenoxyacetyl = O=C(COc1ccccc1)*; X10 = O=C(c1cc(-c2ccco2)[nH]n1)*; Pentanoyl(4-Me) = CC(C)CCC(=O)*; X5 = O=C(c1cc2cc(Cl)ccc2[nH]1)*; X4 = O=C(c1cccc2c1OC(F)(F)O2)*; Cysteamide = C(CS[*:3])N[*:1]; X13 = O=C(c1ccc2[nH]cnc2c1)*; X3 = O=C(Cc1c[nH]c2ccccc12)*; X8 = O=C(c1ccc(=O)[nH]n1)*; X9 = COc1ccc(CC(=O)*)cc1OC; Isovaleryl = CC(C)CC(=O)*; X7 = CC(C)=CCCC(C)CC(=O)*; X1 = O=C(/C=C/c1ccccc1)*; 2Furoyl = O=C(c1ccco1)*; Dap = NC[C@H](N)C(=O)O; Inp = O=C(O)C1CCNCC1; Bz = O=C(c1ccccc1)*; Ms = CS(=O)(=O)*; Mpa = O=C(O)CCS
# Biological target: MDM2 (Homo sapiens, UniProt Q00987)
# Sequence (Q00987 whole entry): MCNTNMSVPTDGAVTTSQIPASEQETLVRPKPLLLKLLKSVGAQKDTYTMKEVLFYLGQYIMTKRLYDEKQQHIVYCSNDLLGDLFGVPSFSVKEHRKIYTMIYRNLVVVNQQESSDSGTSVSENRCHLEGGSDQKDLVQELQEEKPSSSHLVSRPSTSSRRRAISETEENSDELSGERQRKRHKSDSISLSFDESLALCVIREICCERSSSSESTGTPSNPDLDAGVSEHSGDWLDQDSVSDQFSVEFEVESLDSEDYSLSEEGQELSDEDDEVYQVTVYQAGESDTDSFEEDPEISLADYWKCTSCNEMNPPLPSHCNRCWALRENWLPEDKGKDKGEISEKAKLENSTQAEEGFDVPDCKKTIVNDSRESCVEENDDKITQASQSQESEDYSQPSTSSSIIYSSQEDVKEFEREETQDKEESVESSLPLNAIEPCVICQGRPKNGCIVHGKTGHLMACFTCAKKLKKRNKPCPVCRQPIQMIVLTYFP
# Assay: MDM2 binding screen: displacement of fluorescent p53 peptide probe FP53 (fluorescence polarization)
# Settings: 10 µM macrocycle concentration; crude acylated macrocycle (scaffold Mpa-AA1-AA2-AA3 x carboxylic acid); p53-based fluorescent peptide, human MDM2
# Method in brief: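 Single-point screen: one fluorescence anisotropy reading at 25 °C (485 nm excitation, 535 nm emission) per macrocycle. Crude macrocycle reactions, final 10 µM, were scored for displacing the fluorescent p53 peptide from human MDM2.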
row,Compound,fraction fluorescent probe displaced
1,O=C(NC[C@@H]1NC(=O)[C@@H]2CCCN2C(=O)CCSSCCNC(=O)[C@H](Cc2ccccc2)NC1=O)c1ccccc1 [X-B1-D3-F + A1] ([Mpa]P[Dap](Bz)F-Cysteamide; disulfide 1-C),-0.005048
2,O=C(NC[C@@H]1NC(=O)[C@@H]2CCCN2C(=O)CCSSCCNC(=O)[C@H](Cc2ccccc2)NC1=O)c1cnccn1 [X-B1-D3-F + A2] ([Mpa]P[Dap](Pyrazinecarbonyl)F-Cysteamide; disulfide 1-C),0.08617
3,Cc1cc(C(=O)NC[C@@H]2NC(=O)[C@@H]3CCCN3C(=O)CCSSCCNC(=O)[C@H](Cc3ccccc3)NC2=O)no1 [X-B1-D3-F + A3] ([Mpa]P[Dap](Isoxazole3carbonyl(5-Me))F-Cysteamide; disulfide 1-C),0.08125
4,O=C(NC[C@@H]1NC(=O)[C@@H]2CCCN2C(=O)CCSSCCNC(=O)[C@H](Cc2ccccc2)NC1=O)c1ccc2[nH]cnc2c1 [X-B1-D3-F + A6] ([Mpa]P[Dap](X13)F-Cysteamide; disulfide 1-C),-0.003922
5,CC(=O)NC[C@@H]1NC(=O)[C@@H]2CCCN2C(=O)CCSSCCNC(=O)[C@H](Cc2ccccc2)NC1=O [X-B1-D3-F + A7] ([Mpa]P[Dap](Ac)F-Cysteamide; disulfide 1-C),0.02548
6,CC(C)CC(=O)NC[C@@H]1NC(=O)[C@@H]2CCCN2C(=O)CCSSCCNC(=O)[C@H](Cc2ccccc2)NC1=O [X-B1-D3-F + A8] ([Mpa]P[Dap](Isovaleryl)F-Cysteamide; disulfide 1-C),-0.02974
7,O=C(NC[C@@H]1NC(=O)[C@@H]2CCCN2C(=O)CCSSCCNC(=O)[C@H](Cc2ccccc2)NC1=O)c1c[nH]c(=O)cn1 [X-B1-D3-F + A9] ([Mpa]P[Dap](Pyrazinoyl(5-oxo-4H))F-Cysteamide; disulfide 1-C),-0.0026
8,COc1ccc(C(=O)NC[C@@H]2NC(=O)[C@@H]3CCCN3C(=O)CCSSCCNC(=O)[C@H](Cc3ccccc3)NC2=O)cn1 [X-B1-D3-F + A10] ([Mpa]P[Dap](Nicotinoyl(6-OMe))F-Cysteamide; disulfide 1-C),0.01535
9,O=C(NC[C@@H]1NC(=O)[C@@H]2CCCN2C(=O)CCSSCCNC(=O)[C@H](Cc2ccccc2)NC1=O)c1c[nH]c(=O)[nH]c1=O [X-B1-D3-F + A11] ([Mpa]P[Dap](Isoorotoyl)F-Cysteamide; disulfide 1-C),0.04782
10,O=C(Cc1c[nH]c2ccccc12)NC[C@@H]1NC(=O)[C@@H]2CCCN2C(=O)CCSSCCNC(=O)[C@H](Cc2ccccc2)NC1=O [X-B1-D3-F + A12] ([Mpa]P[Dap](X3)F-Cysteamide; disulfide 1-C),0.03497
11,O=C(COc1ccccc1)NC[C@@H]1NC(=O)[C@@H]2CCCN2C(=O)CCSSCCNC(=O)[C@H](Cc2ccccc2)NC1=O [X-B1-D3-F + A13] ([Mpa]P[Dap](Phenoxyacetyl)F-Cysteamide; disulfide 1-C),0.1199
12,O=C(NC[C@@H]1NC(=O)[C@@H]2CCCN2C(=O)CCSSCCNC(=O)[C@H](Cc2ccccc2)NC1=O)c1ccc(Cl)s1 [X-B1-D3-F + A14] ([Mpa]P[Dap](2Thenoyl(5-Cl))F-Cysteamide; disulfide 1-C),0.08192
13,"Cc1nnsc1C(=O)NC[C@@H]1NC(=O)[C@@H]2CCCN2C(=O)CCSSCCNC(=O)[C@H](Cc2ccccc2)NC1=O [X-B1-D3-F + A15] ([Mpa]P[Dap](1,2,3Thiadiazole5CO(4-Me))F-Cysteamide; disulfide 1-C)",-0.03374
14,O=C(NC[C@@H]1NC(=O)[C@@H]2CCCN2C(=O)CCSSCCNC(=O)[C@H](Cc2ccccc2)NC1=O)c1ccco1 [X-B1-D3-F + A16] ([Mpa]P[Dap](2Furoyl)F-Cysteamide; disulfide 1-C),-0.04895
15,O=C(NC[C@@H]1NC(=O)[C@@H]2CCCN2C(=O)CCSSCCNC(=O)[C@H](Cc2ccccc2)NC1=O)c1cccc(C(F)(F)F)c1 [X-B1-D3-F + A18] ([Mpa]P[Dap](Benzoyl(3-CF3))F-Cysteamide; disulfide 1-C),0.09317
16,"O=C(NC[C@@H]1NC(=O)[C@@H]2CCCN2C(=O)CCSSCCNC(=O)[C@H](Cc2ccccc2)NC1=O)c1cc(F)cc(F)c1 [X-B1-D3-F + A23] ([Mpa]P[Dap](Benzoyl(3,5-F2))F-Cysteamide; disulfide 1-C)",0.02873
17,O=C(NC[C@@H]1NC(=O)[C@@H]2CCCN2C(=O)CCSSCCNC(=O)[C@H](Cc2ccccc2)NC1=O)c1ccc(Cl)cc1 [X-B1-D3-F + A25] ([Mpa]P[Dap](Benzoyl(4-Cl))F-Cysteamide; disulfide 1-C),0.2195

row,Compound,fraction fluorescent probe displaced
1,COc1ccc(CC(=O)NC[C@@H]2NC(=O)[C@@H]3CCCN3C(=O)CCSSCCNC(=O)[C@H](Cc3ccccc3)NC2=O)cc1OC [X-B1-D3-F + A37] ([Mpa]P[Dap](X9)F-Cysteamide; disulfide 1-C),0.02818
2,O=C(NC[C@@H]1NC(=O)[C@@H]2CCCN2C(=O)CCSSCCNC(=O)[C@H](Cc2ccccc2)NC1=O)c1cccc2c1OC(F)(F)O2 [X-B1-D3-F + A38] ([Mpa]P[Dap](X4)F-Cysteamide; disulfide 1-C),0.06653
3,O=C(NC[C@@H]1NC(=O)[C@@H]2CCCN2C(=O)CCSSCCNC(=O)[C@H](Cc2ccccc2)NC1=O)c1cc2cc(Cl)ccc2[nH]1 [X-B1-D3-F + A39] ([Mpa]P[Dap](X5)F-Cysteamide; disulfide 1-C),0.08617
4,O=C(NC[C@@H]1NC(=O)[C@@H]2CCCN2C(=O)CCSSCCNC(=O)[C@H](Cc2ccccc2)NC1=O)C1CCOCC1 [X-B1-D3-F + A44] ([Mpa]P[Dap](Tetrahydropyran4carbonyl)F-Cysteamide; disulfide 1-C),0.01122
5,N#CC1(C(=O)NC[C@@H]2NC(=O)[C@@H]3CCCN3C(=O)CCSSCCNC(=O)[C@H](Cc3ccccc3)NC2=O)CC1 [X-B1-D3-F + A56] ([Mpa]P[Dap](Cyclopropanecarbonyl(1-CN))F-Cysteamide; disulfide 1-C),0
6,CS(=O)(=O)N1CCC(C(=O)NC[C@@H]2NC(=O)[C@@H]3CCCN3C(=O)CCSSCCNC(=O)[C@H](Cc3ccccc3)NC2=O)CC1 [X-B1-D3-F + A57] ([Mpa]P[Dap]([Inp-Ms])F-Cysteamide; disulfide 1-C),-0.1145
7,O=C(CC1CCCCC1)NC[C@@H]1NC(=O)[C@@H]2CCCN2C(=O)CCSSCCNC(=O)[C@H](Cc2ccccc2)NC1=O [X-B1-D3-F + A66] ([Mpa]P[Dap](Cyclohexylacetyl)F-Cysteamide; disulfide 1-C),0.03478
8,CC(C)CCC(=O)NC[C@@H]1NC(=O)[C@@H]2CCCN2C(=O)CCSSCCNC(=O)[C@H](Cc2ccccc2)NC1=O [X-B1-D3-F + A68] ([Mpa]P[Dap](Pentanoyl(4-Me))F-Cysteamide; disulfide 1-C),-0.1369
9,O=C(Cc1ccncc1)NC[C@@H]1NC(=O)[C@@H]2CCCN2C(=O)CCSSCCNC(=O)[C@H](Cc2ccccc2)NC1=O [X-B1-D3-F + A70] ([Mpa]P[Dap](Acetyl(4-pyridyl))F-Cysteamide; disulfide 1-C),-0.04156
10,COc1ccc(C(=O)NC[C@@H]2NC(=O)[C@@H]3CCCN3C(=O)CCSSCCNC(=O)[C@H](Cc3ccccc3)NC2=O)cc1 [X-B1-D3-F + A71] ([Mpa]P[Dap](Benzoyl(4-OMe))F-Cysteamide; disulfide 1-C),-0.03153
11,O=C(NC[C@@H]1NC(=O)[C@@H]2CCCN2C(=O)CCSSCCNC(=O)[C@H](Cc2ccccc2)NC1=O)C1=C[C@@H](O)[C@@H](O)[C@H](O)C1 [X-B1-D3-F + A72] ([Mpa]P[Dap](Shikimoyl)F-Cysteamide; disulfide 1-C),0.06911
12,O=C(NC[C@@H]1NC(=O)[C@@H]2CCCN2C(=O)CCSSCCNC(=O)[C@H](Cc2ccccc2)NC1=O)C1Cc2ccccc2C1 [X-B1-D3-F + A76] ([Mpa]P[Dap](Indane2carbonyl)F-Cysteamide; disulfide 1-C),0.03186
13,O=C(NC[C@@H]1NC(=O)[C@@H]2CCCN2C(=O)CCSSCCNC(=O)[C@H](Cc2ccccc2)NC1=O)c1cc(-c2ccco2)[nH]n1 [X-B1-D3-F + A79] ([Mpa]P[Dap](X10)F-Cysteamide; disulfide 1-C),0.07009
14,CC(C)=CCCC(C)CC(=O)NC[C@@H]1NC(=O)[C@@H]2CCCN2C(=O)CCSSCCNC(=O)[C@H](Cc2ccccc2)NC1=O (some centres unmarked) [X-B1-D3-F + A84] ([Mpa]P[Dap](X7)F-Cysteamide; disulfide 1-C),0.05085
15,O=C(NC[C@@H]1NC(=O)[C@@H]2CCCN2C(=O)CCSSCCNC(=O)[C@H](Cc2ccccc2)NC1=O)c1ccc(=O)[nH]n1 [X-B1-D3-F + A86] ([Mpa]P[Dap](X8)F-Cysteamide; disulfide 1-C),0.01272
16,O=C(/C=C/c1ccccc1)NC[C@@H]1NC(=O)[C@@H]2CCCN2C(=O)CCSSCCNC(=O)[C@H](Cc2ccccc2)NC1=O [X-B1-D3-F + A91] ([Mpa]P[Dap](X1)F-Cysteamide; disulfide 1-C),0.08311

# Same assay, conditions: Acid 25; initial screen; crude macrocycle reactions
row,Compound,"fraction fluorescent probe displaced, Screen"
1,O=C1CCSSCCNC(=O)c2cccc(c2)CNC(=O)C2CN(C(=O)c3ccc(Cl)cc3)CCN2C(=O)[C@H](Cc2c[nH]c3ccccc23)N1 (some centres unmarked) [X W D7 B5 Acid 25],0.12

# Same assay, conditions: Acid 25; replicate; crude macrocycle reactions
row,Compound,"fraction fluorescent probe displaced, Replicate"
1,O=C1CCSSCCNC(=O)c2cccc(c2)CNC(=O)C2CN(C(=O)c3ccc(Cl)cc3)CCN2C(=O)[C@H](Cc2c[nH]c3ccccc23)N1 (some centres unmarked) [X W D7 B5 Acid 25],0.10
